{"source": "patent US8663616B2", "about": "“Enzymatic peracid generation for use in oral care products” (E I du Pont de Nemours and Company, priority 2010, dated 2014)", "key": {"[1]": {"experiment": "Bleaching of coffee-tea stained bovine enamel with EZ-1 and various ester substrates (Example 15)", "description": "The optimal conditions used for the generation of peracetic acid with each substrate were derived from the studies in Example 14 and are listed below as follows:\nBovine enamel incisors were prepared as indicated in Example 1. The stained enamel blocks were placed in a 24 well plate with the dentin side facing down and hydrated overnight in phosphate buffer, pH 7.2. Prior to treatment, a color measurement of each tooth was performed using a Konica-Minolta 2600d spectrophotometer and whiteness index was calculated as specified in Example 1.\nEach enzyme solution was prepared in a 1.5-mL microfuge tube (Eppendorf, #2243102-1) and 1 mL of the solution was immediately transferred to the 24 well plate containing the pre-hydrated teeth. The control samples consisted of 100 mM phosphate buffer, pH 7.2 and 9% H2O2 in 100 mM citrate/phosphate buffer, pH 5.3. The teeth were incubated at room temperature for 30 minutes, removed, rinsed with 100 mM phosphate, pH 7.2 and a color measurement was taken. The teeth were placed back into the 24 well plate at which time fresh enzyme solutions were prepared and added to each well. This process was repeated for a total of 3 whitening treatments; 30 min per treatment (Table 22)."}, "[2]": {"experiment": "One-step bleaching of stained bovine enamel with perhydrolase system (Example 12)", "from_the_text": "(§1) Whiteness index (WI) is defined by the International Commission on Illumination (CIE) and described in ASTM method E313-05 and calculated for D65/10 incident light as: WI=Y+800*(0.3138−x)+1700*(0.3310−y) Where Y, x, and y are the luminance factor and the chromaticity coordinates respectively of the enamel substrate.\n(§2) The purpose of this example is to show the tooth bleaching effect of enzymatic generated peracetic acid in a one-step application and compare to the performance achieved with chemically derived peracetic acid. Two methods were developed to use a perhydrolytic enzyme (CE-7 perhydrolase) system to achieve the target level of tooth bleaching. The first method (referred to herein as the “one-step approach”) comprises combining different amounts of at least one CE-7 perhydrolase with triacetin (an example of a suitable ester substrate) and hydrogen peroxide to generate peracetic acid using model stained enamel substrates. Bovine enamel incisors were prepared as indicated in Example 1. Stained bovine enamel blocks were hydrated in water at least 1 hr prior to use to stabilize the color of the substrate. The color for each enamel block was measured after hydration prior to the start of the experiment. Three enamel samples were treated for each solution type. The solutions used were a buffer only control, 2.5% H2O2, 1% peracetic acid, a perhydrolase composition including 10 μM EZ-1 (C277S; SEQ ID NO: 424), 100 mM triacetin and 250 mM H2O2 and a no enzyme control of 100 mM triacetin and 250 mM H2O2. All solutions were prepared in 500 mM sodium phosphate buffer, pH 7.2. The high buffer strength was necessary to maintain the 1% peracetic acid solution at neutral pH. All solutions were freshly prepared for each treatment point. The enzyme-triacetin-H2O2 combination and triacetin-H2O2 combination was mixed immediately before enamel exposure. After each treatment step, each enamel block was rinsed with water and a color measurement was obtained. A total treatment time of 61 min was used with durations of exposure of 1 min, 5 min, 10 min, 15 min and 30 min. The concentration of peracetic acid in solution after the 1 min, 10 min and 30 min treatments was evaluated by colorimetric detection of ABTS oxidation."}, "[3]": {"experiment": "Peracetic acid vs hydrogen peroxide bleaching of coffee/tea stained bovine enamel (whiteness index)", "conditions": "for ΔWI: 0 to 61 min; for Whiteness Index 0 min: before exposure", "from_the_text": "This example describes the use of peracetic acid to achieve a bleaching effect on model stained enamel surfaces. Bovine enamel incisors were obtained from SE Dental (Baton Rouge, La.). Teeth were sectioned and cut into enamel slabs approximately 7 mm on each side using a DREMEL® rotary saw (Robert Bosch Power Tool Corporation; Chicago, Ill.) with a diamond blade. The enamel slabs were cleaned and lightly polished to remove surface debris. The enamel was pretreated with a mixture of coffee and tea for 1-5 days in order to stain to a color similar to human stained teeth.\nEach enamel block was hydrated in water for at least 1 hr prior to use. Color measurements for the substrate were obtained prior to exposure to test solutions. Solutions of peracetic acid were prepared from a 32% stock in 500 mM sodium phosphate buffer, pH 7.2. A solution of 2.5% H2O2 was also prepared in the same buffer. Multiple enamel blocks were exposed to each solution for 1 min followed by additional exposures of 5 min, 10 min, 15 min and 30 min. For each treatment, a fresh solution of peracetic acid and hydrogen peroxide was prepared from the stock solutions. After each treatment the enamel blocks were rinsed with water and measured with a Konica-Minolta 2600d spectrophotometer.\nas §1"}, "[4]": {"experiment": "Peracetic acid in treatment solution by ABTS absorbance (Example 12)", "format": "biochemical", "conditions": "1:100 dilution into ABTS reagent", "from_the_text": "as §2\nDetermination of the peracetic acid (PAA) concentration in the reaction mixtures by a colorimetric method was performed according to the method described by Dinu et. al. (supra). A reagent solution of 1 mM 2,2′-azino-bis(3-ethylbenzothiazoline)-6-sulfonate (ABTS), 50 μM potassium iodide in 125 mM potassium citrate buffer at pH 5.0 was prepared. […] The solution was analyzed for absorbance at 405 nm using a Microplate reader. A comparison of relative amounts of peracetic acid in solution was determined by comparing absorbance values directly."}}, "data": [{"smiles": "OO", "note": "[Enzyme H2O2, hydrogen peroxide]", "values": [{"measurement": "Whiteness Index Treatment 1", "setting": "[1]; after 1 x 30 min treatment", "result": "−129.6"}, {"measurement": "Whiteness Index Treatment 2", "setting": "[1]; after 2 x 30 min treatments", "result": "−117.6"}, {"measurement": "Whiteness Index Treatment 3", "setting": "[1]; after 3 x 30 min treatments", "result": "−115.2"}, {"measurement": "Whiteness Index Treatment 0", "setting": "[1]; before treatment, 40 ppm EZ-1, 100 mM substrate, H2O2 100 mM (TA), 360 mM (PGDA, SOC), 60 mM (GPA), pH 7.2, control 9% H2O2 pH 5.3 without enzyme", "result": "−167.6"}, {"measurement": "ΔWI", "setting": "[1]; treatment 0 to treatment 3", "result": 52.4}, {"measurement": "Whiteness Index 0 min", "setting": "[2]; before treatment, 2.5% H2O2, 100 mM triacetin/250 mM H2O2, 1% PAA, 10 μM EZ-1/100 mM triacetin/250 mM H2O2, pH 7.2", "result": "−149.3"}, {"measurement": "ΔWI", "setting": "[2]; one-step, 0 to 61 min", "result": 46.2}, {"measurement": "Whiteness Index 1 min", "setting": "[2]; one-step, cumulative treatment 1 min", "result": "−146.3"}, {"measurement": "Whiteness Index 6 min", "setting": "[2]; one-step, cumulative treatment 6 min", "result": "−142.5"}, {"measurement": "Whiteness Index 16 min", "setting": "[2]; one-step, cumulative treatment 16 min", "result": "−134.7"}, {"measurement": "Whiteness Index 31 min", "setting": "[2]; one-step, cumulative treatment 31 min", "result": "−125.2"}, {"measurement": "Whiteness Index 61 min", "setting": "[2]; one-step, cumulative treatment 61 min", "result": "−103.1"}, {"measurement": "ΔWI", "setting": "[3]; Table 1, 2.5% H2O2 or 0.5% PAA", "result": 42.6}, {"measurement": "Whiteness Index 1 min", "setting": "[3]; Table 1, 2.5% H2O2 or 0.5% PAA, cumulative exposure 1 min", "result": "−127.2"}, {"measurement": "Whiteness Index 6 min", "setting": "[3]; Table 1, 2.5% H2O2 or 0.5% PAA, cumulative exposure 6 min", "result": "−124.5"}, {"measurement": "Whiteness Index 16 min", "setting": "[3]; Table 1, 2.5% H2O2 or 0.5% PAA, cumulative exposure 16 min", "result": "−118.4"}, {"measurement": "Whiteness Index 31 min", "setting": "[3]; Table 1, 2.5% H2O2 or 0.5% PAA, cumulative exposure 31 min", "result": "−103.6"}, {"measurement": "Whiteness Index 61 min", "setting": "[3]; Table 1, 2.5% H2O2 or 0.5% PAA, cumulative exposure 61 min", "result": "−84.9"}, {"measurement": "Whiteness Index 0 min", "setting": "[3]; Table 1, 2.5% H2O2 or 0.5% PAA, 500 mM sodium phosphate pH 7.2", "result": "−127.5"}, {"measurement": "Whiteness Index 1 min", "setting": "[3]; Table 2, 2.5% H2O2", "result": "−92.6"}, {"measurement": "Whiteness Index 6 min", "setting": "[3]; Table 2, 2.5% H2O2", "result": "−86.4"}, {"measurement": "Whiteness Index 16 min", "setting": "[3]; Table 2, 2.5% H2O2", "result": "−79.5"}, {"measurement": "Whiteness Index 31 min", "setting": "[3]; Table 2, 2.5% H2O2", "result": "−68.3"}, {"measurement": "Whiteness Index 61 min", "setting": "[3]; Table 2, 2.5% H2O2", "result": "−56.4"}, {"measurement": "ΔWI", "setting": "[3]; Table 2, 2.5% H2O2", "result": 37.4}, {"measurement": "Whiteness Index 0 min", "setting": "[3]; Table 2, 2.5% H2O2", "result": "−93.8"}, {"measurement": "Absorbance 405 nm, 1 min", "setting": "[4]; peracetic acid at end of 1 min treatment", "result": 0.056}, {"measurement": "Absorbance 405 nm, 10 min", "setting": "[4]; peracetic acid at end of 10 min treatment", "result": 0.060}, {"measurement": "Absorbance 405 nm, 30 min", "setting": "[4]; peracetic acid at end of 30 min treatment", "result": 0.054}]}]}
